Values quoted from earlier work as cited in patent publication US20090220611A1, “Microparticles With Modified Release of At Least One Active Principle and Oral Pharmaceutical Form Comprising Same” (priority 2005, published 2009).

Conditions: qualitative statement

- water solubility: sparingly water-soluble
SMILES: Nc1nc2c(ncn2COCCO)c(=O)[nH]1 [aciclovir]
